Measurements as given in the supplement of paper PMC10307832.

Legend:
Assay in all cases: relative viability (nuclei count vs DMSO), 5 days (fraction); higher = more cells survive
[1] = compound: C/C(=N\NC(=S)N1CCC1)/C2=CC=CC=N2
Outline: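 Vehicle-anchored 1536-well plates of lung cancer cell lines, held overnight at 37 °C, were pinned with five library-drug doses (not always all listed) spaced by √10. No medium change followed over the next 5 days, after which the cells were fixed, permeabilised and Hoechst-stained together and imaged at 4×. Nuclei were counted with MetaXpress, and viability is treated-well nuclei over vehicle-well nuclei, taken as a median across plates. Plates passed with control CV below 25% and at least one doubling.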

[2] = compound: C/C(=N\NC(=S)N1CCC1)/C2=CC=CC=N2 + O=C(c1cc(Cc2n[nH]c(=O)c3ccccc23)ccc1F)N1CCN(C(=O)C2CC2)CC1 [Olaparib] (partner 8 µM)
Outline: (§1)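 Five library-drug doses in √10 steps were combined with a fixed anchor-drug dose, or a single drug was given alone, by pin tool to lung cancer cell lines in 1536-well plates the day after seeding. Nuclei were stained and counted after 5 days. Relative viability is the nuclei count in treated wells over that in vehicle wells, taken as the median of duplicate plates.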

[3] = compound: C/C(=N\NC(=S)N1CCC1)/C2=CC=CC=N2 + N=C(N)NC(=N)NCCc1ccccc1 [Phenformin] (partner 250 µM)
Outline: as §1

[4] = compound: C/C(=N\NC(=S)N1CCC1)/C2=CC=CC=N2 + CC(=O)Nc1cccc(-n2c(=O)n(C3CC3)c(=O)c3c(Nc4ccc(I)cc4F)n(C)c(=O)c(C)c32)c1 [Trametinib] (partner 0.02 µM)
Outline: as §1

Cell Line	relative viability ([1]; 0.05 µM)	relative viability ([1]; 0.1581 µM)	relative viability ([1]; 0.5 µM)	relative viability ([1]; 1.581 µM)	relative viability ([1]; 5 µM)	relative viability ([2]; first compound 0.05 µM)	relative viability ([2]; first compound 0.1581 µM)	relative viability ([2]; first compound 0.5 µM)	relative viability ([2]; first compound 1.581 µM)	relative viability ([2]; first compound 5 µM)	relative viability ([3]; first compound 0.05 µM)	relative viability ([3]; first compound 0.1581 µM)	relative viability ([3]; first compound 0.5 µM)	relative viability ([3]; first compound 1.581 µM)	relative viability ([3]; first compound 5 µM)	relative viability ([4]; first compound 0.05 µM)	relative viability ([4]; first compound 0.1581 µM)	relative viability ([4]; first compound 0.5 µM)	relative viability ([4]; first compound 1.581 µM)	relative viability ([4]; first compound 5 µM)
NCI-H2126	0.236	0.246	0.214	0.197	0.21	0.344	0.889	0.186	0.191	0.17	0.396	0.407	0.364	0.316	0.381	0.299	0.574	0.189	0.183	0.23
HCC-44	0.351	0.279	0.299	0.246	0.24	0.863	0.918	0.541	0.517	0.446	0.0955	0.14	0.0915	0.153	0.188	0.869	0.987	0.409	0.491	0.397
NCI-H460	0.0678	0.0619	0.0798	0.0529	0.0177	0.0648	0.0442	0.0577	0.0429	0.0274	0.0303	0.0322	0.0348	0.0156	0.0113	0.0177	0.0199	0.0221	0.0121	0.0173
SK-LU-1	0.24	0.233	0.25	0.168	0.208	0.162	0.175	0.22	0.135	0.15	0.124	0.152	0.174	0.104	0.123	0.294	0.278	0.254	0.191	0.258
NCI-H322M	0.337	0.337	0.352	0.329	0.35	0.334	0.334	0.398	0.398	0.467	0.332	0.375	0.249	0.255	0.311	0.451	0.45	0.424	0.43	0.423
EKVX	0.129	0.138	0.118	0.153	0.161	0.149	0.115	0.121	0.16	0.167	0.14	0.132	0.167	0.161	0.23	0.104	0.124	0.114	0.151	0.136
NCI-H1734	0.184	0.186	0.189	0.13	0.116	0.148	0.13	0.15	0.114	0.1	0.147	0.206	0.194	0.12	0.132	0.153	0.154	0.122	0.137	0.116
SW 900	0.147	0.135	0.0841	0.127	0.188	0.233	0.116	0.135	0.164	0.16	0.0993	0.114	0.105	0.0942	0.147	0.125	0.165	0.137	0.142	0.168
NCI-H520	0.164	0.17	0.141	0.16	0.172	0.122	0.131	0.125	0.106	0.143	0.149	0.255	0.168	0.143	0.251	0.101	0.129	0.118	0.123	0.159
EPLC-272H	0.163	0.161	0.124	0.0926	0.136	0.114	0.13	0.0724	0.0602	0.131	0.112	0.13	0.084	0.0614	0.122	0.121	0.114	0.114	0.0558	0.0892
UMC-11	0.262	0.241	0.23	0.193	0.175	0.163	0.122	0.137	0.131	0.106	0.202	0.19	0.207	0.185	0.168	0.164	0.164	0.159	0.113	0.129
NCI-H1792	0.362	0.234	0.227	0.184	0.134	0.228	0.107	0.0578	0.134	0.101	0.122	0.096	0.108	0.063	0.0674	0.415	0.101	0.0783	0.0869	0.0954
NCI-H1993	0.472	0.529	0.593	0.499	0.577	0.418	0.426	0.355	0.334	0.431	0.524	0.495	0.627	0.581	0.526	0.402	0.374	0.438	0.351	0.45
NCI-H596	0.307	0.311	0.257	0.222	0.263	0.616	0.391	0.347	0.31	0.292	0.301	0.391	0.324	0.239	0.259	0.613	0.296	0.293	0.201	0.239
NCI-H1793	0.181	0.215	0.176	0.16	0.168	0.255	0.143	0.169	0.123	0.107	0.131	0.201	0.188	0.147	0.156	0.308	0.188	0.166	0.142	0.179
NCI-H1395	0.423	0.41	0.336	0.344	0.383	0.321	0.285	0.373	0.364	0.39	0.279	0.349	0.364	0.307	0.389	0.425	0.388	0.327	0.381	0.389

Cell Line	relative viability ([1]; 0.05 µM)	relative viability ([1]; 0.1581 µM)	relative viability ([1]; 0.5 µM)	relative viability ([1]; 1.581 µM)	relative viability ([1]; 5 µM)	relative viability ([2]; first compound 0.05 µM)	relative viability ([2]; first compound 0.1581 µM)	relative viability ([2]; first compound 0.5 µM)	relative viability ([2]; first compound 1.581 µM)	relative viability ([2]; first compound 5 µM)	relative viability ([3]; first compound 0.05 µM)	relative viability ([3]; first compound 0.1581 µM)	relative viability ([3]; first compound 0.5 µM)	relative viability ([3]; first compound 1.581 µM)	relative viability ([3]; first compound 5 µM)	relative viability ([4]; first compound 0.05 µM)	relative viability ([4]; first compound 0.1581 µM)	relative viability ([4]; first compound 0.5 µM)	relative viability ([4]; first compound 1.581 µM)	relative viability ([4]; first compound 5 µM)
HCC-827	0.44	0.359	0.316	0.275	0.205	0.333	0.227	0.203	0.145	0.175	0.222	0.239	0.201	0.173	0.175	0.377	0.269	0.211	0.214	0.176
ChaGo-K-1	0.204	0.227	0.2	0.18	0.186	0.137	0.247	0.126	0.138	0.135	0.176	0.194	0.188	0.152	0.174	0.147	0.391	0.15	0.133	0.152
NCI-H2228	0.192	0.217	0.21	0.118	0.187	0.125	0.142	0.138	0.115	0.107	0.127	0.158	0.172		0.111	0.124	0.151	0.137	0.0911	0.135
NCI-H2170	0.391	0.282	0.268	0.198	0.176	0.487	0.575	0.161	0.124	0.124	0.263	0.26	0.22	0.222	0.153	0.684	0.869	0.186	0.174	0.109
EMC-BAC-2	0.215	0.237	0.219	0.189	0.207	0.188	0.22	0.195	0.164	0.203	0.156	0.233	0.214	0.211	0.212	0.293	0.282	0.246	0.2	0.231
NCI-H522	0.334	0.389	0.351	0.346	0.358	0.291	0.335	0.303	0.311	0.329		0.27	0.398		0.503	0.367	0.334	0.241	0.271	0.364
NCI-H23	0.17	0.196	0.187	0.154	0.172	0.129	0.101	0.0966	0.0889	0.111	0.144	0.164	0.185	0.117	0.139	0.119	0.137	0.121	0.0972	0.128
RERF-LC-KJ	0.263	0.262	0.252	0.244	0.248	0.255	0.248	0.274	0.271	0.255	0.316	0.279	0.319	0.273	0.287	0.242	0.241	0.204	0.222	0.214
NCI-H358	0.132	0.125	0.143	0.119	0.114	0.0853	0.0833	0.0714	0.0722	0.067	0.0917	0.112	0.101	0.0719	0.107	0.1	0.0969	0.116	0.0973	0.097
LC-2-ad	0.209	0.242	0.217	0.163	0.231	0.234	0.21	0.199	0.196	0.2	0.29	0.277	0.259	0.19	0.226	0.238	0.222	0.223	0.232	0.231
HCC-15	0.0583	0.0886	0.0939	0.094	0.0906	0.299	0.259	0.103	0.102	0.101	0.0651	0.134	0.144	0.0712	0.0989	0.151	0.23	0.117	0.0989	0.0939
NCI-H2405	0.294	0.296	0.288	0.274	0.283	0.259	0.272	0.268	0.252	0.208	0.21	0.235	0.24	0.199	0.262	0.236	0.278	0.24	0.239	0.3
LXF-289	0.276	0.313	0.278	0.292	0.119	0.382	0.647	0.175	0.176	0.0913	0.22	0.203	0.202	0.2	0.0793	0.284	0.553	0.206	0.221	0.176
CAL-12T	0.197	0.181	0.16	0.149	0.133	0.16	0.149	0.185	0.171	0.131	0.171	0.15	0.136	0.112	0.101	0.0974	0.126	0.163	0.135	0.122
COR-L23	0.148	0.133	0.138	0.113	0.102	0.107	0.0921	0.0895	0.0916	0.105	0.104	0.102	0.104	0.0877	0.0862	0.111	0.133	0.124	0.107	0.114
NCI-H1755	0.353	0.332	0.321	0.303	0.282	0.632	0.858	0.288	0.29	0.224	0.328	0.311	0.288	0.33	0.271	0.551	0.734	0.254	0.284	0.298
